PubChem BioAssay (NCI)
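Results reflect a 48-hour exposure of cells in 96-well plates to compound at five concentrations. GI50 marks 50% less growth. The concentration for full growth arrest is given as TGI.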

Columns and labels:
Assay in all cases: NCI tumour cell line growth inhibition, 48 h
SN12C renal = test system: SN12C renal
HOP-62 NSCLC = test system: HOP-62 NSCLC
U251 CNS = test system: U251 CNS
MOLT-4 leukemia = test system: MOLT-4 leukemia
IGROV1 ovarian = test system: IGROV1 ovarian
RPMI-8226 leukemia = test system: RPMI-8226 leukemia
HCC-2998 colon = test system: HCC-2998 colon
ACHN renal = test system: ACHN renal
RXF 393 renal = test system: RXF 393 renal
UO-31 renal = test system: UO-31 renal
SK-OV-3 ovarian = test system: SK-OV-3 ovarian
NCI-H460 lung = test system: NCI-H460 lung
SNB-19 CNS = test system: SNB-19 CNS
EKVX NSCLC = test system: EKVX NSCLC
A549 NSCLC = test system: A549 NSCLC
CAKI-1 renal = test system: CAKI-1 renal
SNB-75 CNS = test system: SNB-75 CNS
HL-60(TB) leukemia = test system: HL-60(TB) leukemia
MCF7 breast = test system: MCF7 breast
MALME-3M melanoma = test system: MALME-3M melanoma
OVCAR-8 ovarian = test system: OVCAR-8 ovarian
UACC-257 melanoma = test system: UACC-257 melanoma
NCI-H226 lung = test system: NCI-H226 lung
NCI-H23 lung = test system: NCI-H23 lung
SF-268 CNS = test system: SF-268 CNS
CCRF-CEM leukemia = test system: CCRF-CEM leukemia
HCT-116 colon = test system: HCT-116 colon
SR leukemia = test system: SR leukemia
PC-3 prostate = test system: PC-3 prostate
A498 renal = test system: A498 renal
COLO 205 colon = test system: COLO 205 colon
786-0 renal = test system: 786-0 renal
NCI-H522 lung = test system: NCI-H522 lung
SK-MEL-5 melanoma = test system: SK-MEL-5 melanoma
HCT-15 colon = test system: HCT-15 colon
SF-295 CNS = test system: SF-295 CNS
K-562 leukemia = test system: K-562 leukemia
MDA-MB-231 breast = test system: MDA-MB-231 breast
LOX IMVI melanoma = test system: LOX IMVI melanoma
TK-10 renal = test system: TK-10 renal
MDA-MB-435 = test system: MDA-MB-435
SK-MEL-2 melanoma = test system: SK-MEL-2 melanoma
KM12 colon = test system: KM12 colon
HT29 colon = test system: HT29 colon
SF-539 CNS = test system: SF-539 CNS
M14 melanoma = test system: M14 melanoma
DU-145 prostate = test system: DU-145 prostate
UACC-62 melanoma = test system: UACC-62 melanoma
OVCAR-3 ovarian = test system: OVCAR-3 ovarian
HS 578T breast = test system: HS 578T breast
OVCAR-5 ovarian = test system: OVCAR-5 ovarian
HOP-92 NSCLC = test system: HOP-92 NSCLC
SK-MEL-28 melanoma = test system: SK-MEL-28 melanoma
BT-549 breast = test system: BT-549 breast
OVCAR-4 ovarian = test system: OVCAR-4 ovarian
SW-620 colon = test system: SW-620 colon
MDA-MB-468 breast = test system: MDA-MB-468 breast
T-47D breast = test system: T-47D breast

`O=C(c1ccc(Cl)cc1)C1[C@H](c2ccc(Br)cc2)[C@@H](c2ccccc2)NC12C(=O)Nc1ccc(Br)cc12` (stereo partly specified) was tested, and the GI50 (SN12C renal) was 1.04 µM, the TGI (SN12C renal) was 2.43 µM and the GI50 (HOP-62 NSCLC) was 5.17 µM. For the same molecule, the TGI (HOP-62 NSCLC) was 11.5 µM, the GI50 (U251 CNS) was 1.53 µM and the TGI (U251 CNS) was 6.07 µM. For the same molecule, the GI50 (MOLT-4 leukemia) was 1.39 µM, the TGI (MOLT-4 leukemia) was 5.05 µM and the GI50 (IGROV1 ovarian) was 2.46 µM. It also gave a TGI (IGROV1 ovarian) of 8.43 µM, a GI50 (RPMI-8226 leukemia) of 1.45 µM and a TGI (RPMI-8226 leukemia) of 4.86 µM. The GI50 (HCC-2998 colon) was 1.62 µM, the TGI (HCC-2998 colon) was 4.99 µM and the GI50 (ACHN renal) was 1.52 µM. For the same molecule, the TGI (ACHN renal) was 5.07 µM, the GI50 (RXF 393 renal) was 1.18 µM and the TGI (RXF 393 renal) was 3.25 µM. For the same molecule, the GI50 (UO-31 renal) was 1.53 µM, the TGI (UO-31 renal) was 6.36 µM and the GI50 (SK-OV-3 ovarian) was 5.49 µM. The TGI (SK-OV-3 ovarian) was 13.1 µM, the GI50 (NCI-H460 lung) was 1.07 µM and the TGI (NCI-H460 lung) was 2.54 µM. It also gave a GI50 (SNB-19 CNS) of 3.95 µM, a TGI (SNB-19 CNS) of 10.9 µM and a GI50 (EKVX NSCLC) of 1.94 µM. The TGI (EKVX NSCLC) was 8.07 µM, the GI50 (A549 NSCLC) was 1.6 µM and the TGI (A549 NSCLC) was 6.03 µM. It also gave a GI50 (CAKI-1 renal) of 1.71 µM, a TGI (CAKI-1 renal) of 6.79 µM and a GI50 (SNB-75 CNS) of 1.55 µM. It also gave a TGI (SNB-75 CNS) of 8.89 µM, a GI50 (HL-60(TB) leukemia) of 1.45 µM and a TGI (HL-60(TB) leukemia) of 6.79 µM. For the same molecule, the GI50 (MCF7 breast) was 1.48 µM, the TGI (MCF7 breast) was 5.24 µM and the GI50 (MALME-3M melanoma) was 4.86 µM. For the same molecule, the TGI (MALME-3M melanoma) was 10.7 µM, the GI50 (OVCAR-8 ovarian) was 1.93 µM and the TGI (OVCAR-8 ovarian) was 6.97 µM. For the same molecule, the GI50 (UACC-257 melanoma) was 3.29 µM, the TGI (UACC-257 melanoma) was 9.91 µM and the GI50 (NCI-H226 lung) was 1.81 µM. The TGI (NCI-H226 lung) was 7.96 µM, the GI50 (NCI-H23 lung) was 1.72 µM and the TGI (NCI-H23 lung) was 6.78 µM. For the same molecule, the GI50 (SF-268 CNS) was 1.88 µM, the TGI (SF-268 CNS) was 9.16 µM and the GI50 (CCRF-CEM leukemia) was 1.49 µM. The TGI (CCRF-CEM leukemia) was 4.98 µM, the GI50 (HCT-116 colon) was 1.09 µM and the TGI (HCT-116 colon) was 2.35 µM. For the same molecule, the GI50 (SR leukemia) was 1.03 µM, the TGI (SR leukemia) was 2.99 µM and the GI50 (PC-3 prostate) was 1.65 µM. The TGI (PC-3 prostate) was 6.18 µM, the GI50 (A498 renal) was 5.34 µM and the TGI (A498 renal) was 11.6 µM. The GI50 (COLO 205 colon) was 0.946 µM, the TGI (COLO 205 colon) was 2.08 µM and the GI50 (786-0 renal) was 1.34 µM. The TGI (786-0 renal) was 4.15 µM, the GI50 (NCI-H522 lung) was 1.42 µM and the TGI (NCI-H522 lung) was 6.69 µM. For the same molecule, the GI50 (SK-MEL-5 melanoma) was 6.2 µM, the TGI (SK-MEL-5 melanoma) was 12.6 µM and the GI50 (HCT-15 colon) was 1.6 µM. For the same molecule, the TGI (HCT-15 colon) was 6.07 µM, the GI50 (SF-295 CNS) was 2.13 µM and the TGI (SF-295 CNS) was 8.48 µM. The GI50 (K-562 leukemia) was 1.65 µM, the TGI (K-562 leukemia) was 6.45 µM and the GI50 (MDA-MB-231 breast) was 1.4 µM. For the same molecule, the TGI (MDA-MB-231 breast) was 4.37 µM, the GI50 (LOX IMVI melanoma) was 0.927 µM and the TGI (LOX IMVI melanoma) was 1.99 µM. For the same molecule, the GI50 (TK-10 renal) was 3.07 µM, the TGI (TK-10 renal) was 10 µM and the GI50 (MDA-MB-435) was 2.79 µM. It also gave a TGI (MDA-MB-435) of 9.4 µM, a GI50 (SK-MEL-2 melanoma) of 5.3 µM and a TGI (SK-MEL-2 melanoma) of 11.5 µM. For the same molecule, the GI50 (KM12 colon) was 1.82 µM, the TGI (KM12 colon) was 7.45 µM and the GI50 (HT29 colon) was 1.19 µM. The TGI (HT29 colon) was 3.09 µM, the GI50 (SF-539 CNS) was 4.67 µM and the TGI (SF-539 CNS) was 10.8 µM. For the same molecule, the GI50 (M14 melanoma) was 1.89 µM, the TGI (M14 melanoma) was 7.61 µM and the GI50 (DU-145 prostate) was 2.81 µM. For the same molecule, the TGI (DU-145 prostate) was 9.37 µM, the GI50 (UACC-62 melanoma) was 2.94 µM and the TGI (UACC-62 melanoma) was 9.44 µM. It also gave a GI50 (OVCAR-3 ovarian) of 2.42 µM, a TGI (OVCAR-3 ovarian) of 8.6 µM and a GI50 (HS 578T breast) of 4.15 µM. It also gave a TGI (HS 578T breast) of 18.2 µM, a GI50 (OVCAR-5 ovarian) of 3.55 µM and a TGI (OVCAR-5 ovarian) of 9.88 µM. For the same molecule, the GI50 (HOP-92 NSCLC) was 1.38 µM, the TGI (HOP-92 NSCLC) was 4.1 µM and the GI50 (SK-MEL-28 melanoma) was 4.78 µM. The TGI (SK-MEL-28 melanoma) was 10.7 µM, the GI50 (BT-549 breast) was 2.47 µM and the TGI (BT-549 breast) was 8.33 µM. For the same molecule, the GI50 (OVCAR-4 ovarian) was 2.23 µM, the TGI (OVCAR-4 ovarian) was 9.06 µM and the GI50 (SW-620 colon) was 2.24 µM. It also gave a TGI (SW-620 colon) of 8.37 µM, a GI50 (MDA-MB-468 breast) of 1.55 µM and a TGI (MDA-MB-468 breast) of 7.73 µM. For the same molecule, the GI50 (T-47D breast) was 1.74 µM and the TGI (T-47D breast) was 7.41 µM.
